What all share (format): ADME, organism-based
Data set [1] can be described thus: AUC (0 to t) in ICR mouse at 15 mg/kg, iv administered and measured for 1 min to 12 hrs by LC/MS/MS analysis. To be noted: in vivo.
The nature of data set [2]: AUC (0 to infinity) in ICR mouse at 15 mg/kg, iv administered and measured for 1 min to 12 hrs by LC/MS/MS analysis. Details: dose 15 mg/kg, time infinity, route intravenous. The following applies: in vivo.
Data set [3] in a line: Half life in ICR mouse at 15 mg/kg, iv administered and measured for 1 min to 12 hrs by LC/MS/MS analysis. The following applies: in vivo.
A short description of data set [4]: Cmax in ICR mouse at 15 mg/kg, iv administered and measured for 1 min to 12 hrs by LC/MS/MS analysis. Details: dose 15 mg/kg, route intravenous. To be noted: in vivo.
Data set [5] can be described thus: Volume of distribution at steady state in ICR mouse at 15 mg/kg, iv administered and measured for 1 min to 12 hrs by LC/MS/MS analysis. The following applies: in vivo, read-out: Vdss.
The nature of data set [6]: MRT in ICR mouse at 15 mg/kg, iv administered and measured for 1 min to 12 hrs by LC/MS/MS analysis. The following applies: in vivo.

A word on the AUC(0-t): it is the area under the concentration-time curve up to a stated or last time point. A low value points to less exposure. Broadly, the AUC is the area under the concentration-time curve, a measure of exposure. A lower AUC goes with less exposure. Usually half-life stands for how long it takes for the measured level to halve. A lower half-life goes with rapid decline. By Cmax is commonly meant the peak of the concentration-time curve. What is called MRT is the average time that molecules of a dose stay in the body. As to `CNc1nc(Nc2cnc(C#N)c(O[C@@H]3CCCNC3)c2)ncc1-c1cnn(C)c1`, the area under the curve AUC(0-t) in data set [1] came to 363 ng·h/mL. Moreover, the area under the curve (AUC) in data set [2] is 370 ng·h/mL. The same compound gave a half-life in data set [3] of 2.23 h. In data set [4], this compound displayed a Cmax of 849 ng/mL. Also, the Vd in data set [5] is 6.42 L/kg. The MRT in data set [6] came to 0.8 h.

The values above are taken from ChEMBL document CHEMBL4393675, “Discovery of (R)-5-((5-(1-methyl-1H-pyrazol-4-yl)-4-(methylamino)pyrimidin-2-yl)amino)-3-(piperidin-3-yloxy)picolinonitrile, a novel CHK1 inhibitor for hematologic malignancies” (Eur J Med Chem, 2019).
